According to ChEMBL document CHEMBL4507292 (2021):

How the values were obtained:
[1] = molecular target: Serine/threonine-protein kinase PAK 5 (Homo sapiens) (UniProt Q9P286); details: Compound concentration 1000.0 nM
[2] = molecular target: Serine/threonine-protein kinase tousled-like 2 (Homo sapiens) (UniProt Q86UE8); details: Compound concentration 1000.0 nM
[3] = molecular target: Tyrosine-protein kinase ABL2 (Homo sapiens) (UniProt P42684); details: Compound concentration 1000.0 nM
[4] = molecular target: Serine/threonine-protein kinase RIO3 (Homo sapiens) (UniProt O14730); details: Compound concentration 1000.0 nM
[5] = tested on: Tyrosine-protein kinase ABL1 (Homo sapiens), P00519 [Y253F]; details: Compound concentration 1000.0 nM
[6] = molecular target: 5'-AMP-activated protein kinase catalytic subunit alpha-2 (Homo sapiens) (UniProt P54646); details: Compound concentration 1000.0 nM
[7] = molecular target: Serine/threonine-protein kinase ULK1 (Homo sapiens) (UniProt O75385); details: Compound concentration 1000.0 nM
[8] = molecular target: Serine/threonine-protein kinase D1 (Homo sapiens) (UniProt Q15139); details: Compound concentration 1000.0 nM
[9] = molecular target: Histamine H2 receptor (Homo sapiens) (UniProt P25021); details: Compound concentration 10.0 uM
[10] = molecular target: RAC-alpha serine/threonine-protein kinase (Homo sapiens) (UniProt P31749); details: Compound concentration 1000.0 nM
[11] = molecular target: Fibroblast growth factor receptor 4 (Homo sapiens) (UniProt P22455); details: Compound concentration 1000.0 nM
[12] = tested on: Proto-oncogene tyrosine-protein kinase receptor Ret (Homo sapiens), P07949 [V804L]; details: Compound concentration 1000.0 nM
[13] = molecular target: Muscarinic acetylcholine receptor M1 (Homo sapiens) (UniProt P11229); details: Compound concentration 10.0 uM
[14] = molecular target: Dual specificity mitogen-activated protein kinase kinase 3 (Homo sapiens) (UniProt P46734); details: Compound concentration 1000.0 nM
[15] = molecular target: Sigma intracellular receptor 2 (Homo sapiens, UniProt Q5BJF2); details: Compound concentration 10.0 uM
[16] = molecular target: D(1B) dopamine receptor (Homo sapiens, UniProt P21918); details: Compound concentration 10.0 uM
[17] = tested on: Receptor-type tyrosine-protein kinase FLT3 (Homo sapiens), P36888 [K663Q]; details: Compound concentration 1000.0 nM
[18] = tested on: Receptor-type tyrosine-protein kinase FLT3 (Homo sapiens), P36888 [UNDEFINED MUTATION]; details: Compound concentration 1000.0 nM
[19] = molecular target: TGF-beta receptor type-2 (Homo sapiens) (UniProt P37173); details: Compound concentration 1000.0 nM
[20] = molecular target: Epithelial discoidin domain-containing receptor 1 (Homo sapiens) (UniProt Q08345); details: Compound concentration 1000.0 nM
[21] = molecular target: Phosphatidylinositol 3-kinase catalytic subunit type 3 (Homo sapiens) (UniProt Q8NEB9); details: Compound concentration 1000.0 nM
[22] = molecular target: Calcium/calmodulin-dependent protein kinase type II subunit gamma (Homo sapiens) (UniProt Q13555); details: Compound concentration 1000.0 nM
[23] = molecular target: Serine/threonine-protein kinase SIK3 (Homo sapiens) (UniProt Q9Y2K2); details: Compound concentration 1000.0 nM
[24] = molecular target: Leukocyte tyrosine kinase receptor (Homo sapiens) (UniProt P29376); details: Compound concentration 1000.0 nM
[25] = molecular target: Serine/threonine-protein kinase NIM1 (Homo sapiens) (UniProt Q8IY84); details: Compound concentration 1000.0 nM
[26] = tested on: Epidermal growth factor receptor (Homo sapiens), P00533 [UNDEFINED MUTATION]; details: Compound concentration 1000.0 nM
[27] = molecular target: Phosphatidylinositol 4,5-bisphosphate 3-kinase catalytic subunit alpha isoform (Homo sapiens) (UniProt P42336); details: Compound concentration 1000.0 nM
[28] = molecular target: Homeodomain-interacting protein kinase 2 (Homo sapiens) (UniProt Q9H2X6); details: Compound concentration 1000.0 nM
[29] = molecular target: Mitogen-activated protein kinase 13 (Homo sapiens) (UniProt O15264); details: Compound concentration 1000.0 nM
[30] = molecular target: Casein kinase I isoform gamma-3 (Homo sapiens) (UniProt Q9Y6M4); details: Compound concentration 1000.0 nM
[31] = molecular target: Peripheral plasma membrane protein CASK (Homo sapiens) (UniProt O14936); details: Compound concentration 1000.0 nM
[32] = molecular target: Glycogen synthase kinase-3 beta (Homo sapiens) (UniProt P49841); details: Compound concentration 1000.0 nM
[33] = molecular target: Mitogen-activated protein kinase 12 (Homo sapiens) (UniProt P53778); details: Compound concentration 1000.0 nM
[34] = molecular target: Serine/threonine-protein kinase ICK (Homo sapiens) (UniProt Q9UPZ9); details: Compound concentration 1000.0 nM
[35] = molecular target: Macrophage colony-stimulating factor 1 receptor (Homo sapiens) (UniProt P07333); details: Compound concentration 1000.0 nM
[36] = molecular target: Mitogen-activated protein kinase 15 (Homo sapiens) (UniProt Q8TD08); details: Compound concentration 1000.0 nM
[37] = molecular target: Ribosomal protein S6 kinase alpha-2 (Homo sapiens) (UniProt Q15349); details: Compound concentration 1000.0 nM
[38] = molecular target: Tyrosine-protein kinase FRK (Homo sapiens) (UniProt P42685); details: Compound concentration 1000.0 nM
[39] = molecular target: Serine/threonine-protein kinase LATS1 (Homo sapiens) (UniProt O95835); details: Compound concentration 1000.0 nM
[40] = molecular target: Glycogen synthase kinase-3 alpha (Homo sapiens) (UniProt P49840); details: Compound concentration 1000.0 nM
[41] = molecular target: Cyclin-dependent kinase 5 (Homo sapiens) (UniProt Q00535); details: Compound concentration 1000.0 nM
[42] = molecular target: D(3) dopamine receptor (Homo sapiens) (UniProt P35462); details: Compound concentration 10.0 uM
[43] = molecular target: TGF-beta receptor type-1 (Homo sapiens) (UniProt P36897); details: Compound concentration 1000.0 nM
[44] = molecular target: Serine/threonine-protein kinase MAK (Homo sapiens) (UniProt P20794); details: Compound concentration 1000.0 nM
[45] = molecular target: Cyclin-dependent kinase 4 (Homo sapiens) (UniProt P11802); details: Compound concentration 1000.0 nM

Chain of Serine/threonine-protein kinase NIM1 (Homo sapiens) (Q8IY84 whole entry): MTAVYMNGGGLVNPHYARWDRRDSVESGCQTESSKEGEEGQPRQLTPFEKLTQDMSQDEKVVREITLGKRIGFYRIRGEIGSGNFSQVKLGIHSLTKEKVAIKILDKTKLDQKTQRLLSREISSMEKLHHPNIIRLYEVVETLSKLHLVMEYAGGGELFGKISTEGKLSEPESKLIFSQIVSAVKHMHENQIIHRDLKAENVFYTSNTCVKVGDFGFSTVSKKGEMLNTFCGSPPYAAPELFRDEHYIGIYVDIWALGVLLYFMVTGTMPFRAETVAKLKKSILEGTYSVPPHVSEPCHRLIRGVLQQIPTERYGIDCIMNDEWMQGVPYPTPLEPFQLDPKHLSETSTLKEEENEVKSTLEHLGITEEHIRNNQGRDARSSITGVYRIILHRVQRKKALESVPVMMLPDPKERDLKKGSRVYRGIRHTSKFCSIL
Chain of D(1B) dopamine receptor (P21918 whole entry): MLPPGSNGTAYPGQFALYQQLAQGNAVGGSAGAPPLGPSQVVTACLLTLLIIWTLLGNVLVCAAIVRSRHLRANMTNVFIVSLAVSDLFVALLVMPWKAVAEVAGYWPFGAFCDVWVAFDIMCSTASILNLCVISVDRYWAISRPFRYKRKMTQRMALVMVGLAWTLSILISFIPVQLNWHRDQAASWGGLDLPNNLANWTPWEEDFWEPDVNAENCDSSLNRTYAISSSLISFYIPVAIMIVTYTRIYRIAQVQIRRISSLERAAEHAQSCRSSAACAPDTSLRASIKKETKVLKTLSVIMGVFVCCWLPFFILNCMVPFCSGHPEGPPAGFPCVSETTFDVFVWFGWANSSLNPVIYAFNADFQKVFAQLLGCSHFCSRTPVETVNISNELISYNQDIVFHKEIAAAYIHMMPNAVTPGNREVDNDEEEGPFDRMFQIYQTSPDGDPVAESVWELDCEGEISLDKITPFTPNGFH
Chain of Ribosomal protein S6 kinase alpha-2 (Homo sapiens) (Q15349 whole entry): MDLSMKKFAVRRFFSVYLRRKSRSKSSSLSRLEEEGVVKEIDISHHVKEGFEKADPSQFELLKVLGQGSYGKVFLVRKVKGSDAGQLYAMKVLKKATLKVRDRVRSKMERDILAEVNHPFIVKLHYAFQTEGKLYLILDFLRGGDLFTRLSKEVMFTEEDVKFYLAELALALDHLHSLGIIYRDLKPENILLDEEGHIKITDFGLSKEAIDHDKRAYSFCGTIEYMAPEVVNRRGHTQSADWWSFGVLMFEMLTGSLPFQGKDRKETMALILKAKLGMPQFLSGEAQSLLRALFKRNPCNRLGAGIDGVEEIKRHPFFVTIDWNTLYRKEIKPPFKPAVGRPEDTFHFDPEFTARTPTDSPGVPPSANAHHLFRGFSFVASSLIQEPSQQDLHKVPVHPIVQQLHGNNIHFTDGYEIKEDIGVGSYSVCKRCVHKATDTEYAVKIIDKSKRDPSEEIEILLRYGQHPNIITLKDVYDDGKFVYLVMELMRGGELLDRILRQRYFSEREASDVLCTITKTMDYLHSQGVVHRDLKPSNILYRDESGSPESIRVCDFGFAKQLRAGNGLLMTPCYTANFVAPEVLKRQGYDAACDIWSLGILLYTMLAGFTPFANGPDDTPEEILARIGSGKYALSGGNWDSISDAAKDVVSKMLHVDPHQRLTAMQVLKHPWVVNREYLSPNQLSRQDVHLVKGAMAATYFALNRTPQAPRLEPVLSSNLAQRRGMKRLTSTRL
Chain of Leukocyte tyrosine kinase receptor (Homo sapiens) (P29376 whole entry): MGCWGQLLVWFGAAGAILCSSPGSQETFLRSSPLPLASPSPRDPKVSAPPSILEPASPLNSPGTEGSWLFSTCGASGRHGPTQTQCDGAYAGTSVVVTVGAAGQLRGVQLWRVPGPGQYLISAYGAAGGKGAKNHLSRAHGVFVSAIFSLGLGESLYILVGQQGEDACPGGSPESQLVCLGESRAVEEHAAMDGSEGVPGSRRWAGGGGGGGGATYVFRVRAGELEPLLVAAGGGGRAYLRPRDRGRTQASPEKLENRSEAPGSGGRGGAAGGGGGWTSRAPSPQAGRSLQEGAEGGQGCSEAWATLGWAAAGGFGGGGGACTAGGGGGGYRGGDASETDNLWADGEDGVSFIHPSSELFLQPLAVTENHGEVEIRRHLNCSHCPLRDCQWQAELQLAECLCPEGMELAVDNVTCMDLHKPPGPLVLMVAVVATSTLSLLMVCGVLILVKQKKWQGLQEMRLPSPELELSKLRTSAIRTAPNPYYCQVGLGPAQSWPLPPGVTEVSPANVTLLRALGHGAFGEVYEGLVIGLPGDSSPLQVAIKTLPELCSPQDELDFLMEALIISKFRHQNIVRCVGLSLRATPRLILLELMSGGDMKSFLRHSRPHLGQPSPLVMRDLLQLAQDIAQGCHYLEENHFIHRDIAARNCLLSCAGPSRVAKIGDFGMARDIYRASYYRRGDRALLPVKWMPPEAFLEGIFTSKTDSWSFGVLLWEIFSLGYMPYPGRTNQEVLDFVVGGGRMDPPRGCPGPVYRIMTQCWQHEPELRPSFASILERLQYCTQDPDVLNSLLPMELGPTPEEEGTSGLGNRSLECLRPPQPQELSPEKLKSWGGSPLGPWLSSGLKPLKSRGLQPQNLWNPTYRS
Chain of Serine/threonine-protein kinase ULK1 (Homo sapiens) (O75385 whole entry): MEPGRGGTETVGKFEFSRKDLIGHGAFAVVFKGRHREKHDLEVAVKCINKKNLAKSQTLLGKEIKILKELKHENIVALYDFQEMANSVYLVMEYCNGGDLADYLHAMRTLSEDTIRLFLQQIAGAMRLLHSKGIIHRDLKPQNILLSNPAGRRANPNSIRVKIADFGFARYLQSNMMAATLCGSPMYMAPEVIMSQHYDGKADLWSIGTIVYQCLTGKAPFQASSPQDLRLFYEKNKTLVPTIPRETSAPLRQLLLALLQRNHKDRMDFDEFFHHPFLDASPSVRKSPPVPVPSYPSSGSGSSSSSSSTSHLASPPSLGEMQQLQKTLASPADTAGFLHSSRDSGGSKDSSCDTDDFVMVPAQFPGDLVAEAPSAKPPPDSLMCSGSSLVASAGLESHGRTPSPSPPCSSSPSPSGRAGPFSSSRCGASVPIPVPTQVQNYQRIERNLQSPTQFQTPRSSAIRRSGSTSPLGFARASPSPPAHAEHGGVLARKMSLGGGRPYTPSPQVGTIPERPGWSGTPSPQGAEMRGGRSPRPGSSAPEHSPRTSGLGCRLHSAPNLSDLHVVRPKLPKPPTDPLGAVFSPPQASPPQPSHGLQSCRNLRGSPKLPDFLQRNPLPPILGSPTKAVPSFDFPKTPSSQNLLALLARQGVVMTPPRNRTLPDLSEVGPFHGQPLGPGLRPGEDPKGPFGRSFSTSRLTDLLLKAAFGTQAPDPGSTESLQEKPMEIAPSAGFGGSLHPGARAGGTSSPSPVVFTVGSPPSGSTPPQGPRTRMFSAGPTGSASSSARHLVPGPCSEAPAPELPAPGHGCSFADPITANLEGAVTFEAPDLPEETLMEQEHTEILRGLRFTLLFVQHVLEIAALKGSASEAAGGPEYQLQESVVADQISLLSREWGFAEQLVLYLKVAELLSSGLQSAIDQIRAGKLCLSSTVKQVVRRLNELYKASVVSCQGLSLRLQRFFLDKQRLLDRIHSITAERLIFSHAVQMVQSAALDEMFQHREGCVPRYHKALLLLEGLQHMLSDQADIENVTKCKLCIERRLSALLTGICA
Chain of Mitogen-activated protein kinase 12 (Homo sapiens) (P53778 whole entry): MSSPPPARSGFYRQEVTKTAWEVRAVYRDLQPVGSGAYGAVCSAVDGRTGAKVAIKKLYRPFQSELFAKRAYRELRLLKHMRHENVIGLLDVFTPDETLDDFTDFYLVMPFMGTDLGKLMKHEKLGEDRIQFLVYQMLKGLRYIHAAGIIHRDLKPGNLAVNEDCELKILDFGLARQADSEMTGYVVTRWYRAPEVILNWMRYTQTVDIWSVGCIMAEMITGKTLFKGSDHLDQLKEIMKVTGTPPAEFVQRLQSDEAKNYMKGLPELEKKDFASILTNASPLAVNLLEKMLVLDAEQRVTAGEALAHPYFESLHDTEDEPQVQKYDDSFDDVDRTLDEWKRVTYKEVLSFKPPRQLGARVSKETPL
Chain of Mitogen-activated protein kinase 13 (Homo sapiens) (O15264 whole entry, canonical isoform): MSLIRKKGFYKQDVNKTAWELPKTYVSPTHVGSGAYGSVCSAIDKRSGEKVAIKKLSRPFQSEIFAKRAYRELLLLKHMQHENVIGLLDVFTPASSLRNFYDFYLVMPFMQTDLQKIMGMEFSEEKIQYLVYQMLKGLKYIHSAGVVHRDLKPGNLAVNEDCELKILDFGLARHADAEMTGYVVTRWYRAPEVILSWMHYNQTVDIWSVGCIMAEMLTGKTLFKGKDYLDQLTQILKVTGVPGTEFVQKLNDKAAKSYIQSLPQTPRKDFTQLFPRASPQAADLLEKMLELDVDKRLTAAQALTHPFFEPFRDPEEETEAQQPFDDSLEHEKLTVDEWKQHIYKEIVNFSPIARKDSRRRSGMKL
Chain of Serine/threonine-protein kinase MAK (Homo sapiens) (P20794 whole entry): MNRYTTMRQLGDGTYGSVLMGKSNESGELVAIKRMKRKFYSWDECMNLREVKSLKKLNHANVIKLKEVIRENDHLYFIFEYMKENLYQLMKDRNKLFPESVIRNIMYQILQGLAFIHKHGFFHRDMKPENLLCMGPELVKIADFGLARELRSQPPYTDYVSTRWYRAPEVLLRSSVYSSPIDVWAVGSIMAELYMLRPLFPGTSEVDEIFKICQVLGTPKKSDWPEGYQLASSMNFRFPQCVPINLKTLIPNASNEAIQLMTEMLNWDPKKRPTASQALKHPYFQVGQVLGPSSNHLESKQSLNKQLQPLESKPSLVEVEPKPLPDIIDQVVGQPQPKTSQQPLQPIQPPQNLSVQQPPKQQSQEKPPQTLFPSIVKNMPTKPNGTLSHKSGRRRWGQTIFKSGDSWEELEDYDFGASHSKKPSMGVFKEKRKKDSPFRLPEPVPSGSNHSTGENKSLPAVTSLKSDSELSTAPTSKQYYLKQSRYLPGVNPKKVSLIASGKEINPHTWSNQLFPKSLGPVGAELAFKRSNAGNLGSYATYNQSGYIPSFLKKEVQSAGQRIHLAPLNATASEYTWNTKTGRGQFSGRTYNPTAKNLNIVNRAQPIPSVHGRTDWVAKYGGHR

Cc1c(C(=O)O)cc(-c2ccc(C3CCNCC3)cc2)c2ccc(-c3ccc(C(F)(F)F)cc3)cc12 [PPTN-NC]
residual activity [1]: 98% | residual activity [2]: 100% | residual activity [3]: 100% | residual activity [4]: 100% | residual activity [5]: 87% | residual activity [6]: 100% | residual activity [7]: 100% | residual activity [8]: 100% | inhibition [9]: 9% | residual activity [10]: 100% | residual activity [11]: 100% | residual activity [12]: 100% | inhibition [13]: 7.22% | residual activity [14]: 100% | inhibition [15]: 92.7% | inhibition [16]: 58.1% | residual activity [17]: 100% | residual activity [18]: 81% | residual activity [19]: 100% | residual activity [20]: 100% | residual activity [21]: 100% | residual activity [22]: 100% | residual activity [23]: 100% | residual activity [24]: 100% | residual activity [25]: 92% | residual activity [26]: 100% | residual activity [27]: 100% | residual activity [28]: 100% | residual activity [29]: 96% | residual activity [30]: 100% | residual activity [31]: 100% | residual activity [32]: 100% | residual activity [33]: 85% | residual activity [34]: 100% | residual activity [35]: 96% | residual activity [36]: 100% | residual activity [37]: 100% | residual activity [38]: 100% | residual activity [39]: 86% | residual activity [40]: 100% | residual activity [41]: 100% | inhibition [42]: 46.7% | residual activity [43]: 89% | residual activity [44]: 91% | residual activity [45]: 100%

O=C(O)c1cc(-c2ccc(C3CCNCC3)cc2)c2ccc(-c3ccc(C(F)(F)F)cc3)cc2c1 [PPTN]
residual activity [1]: 100% | residual activity [2]: 100% | residual activity [3]: 100% | residual activity [4]: 100% | residual activity [5]: 73% | residual activity [6]: 100% | residual activity [7]: 100% | residual activity [8]: 100% | inhibition [9]: 28% | residual activity [10]: 99% | residual activity [11]: 100% | residual activity [12]: 88% | inhibition [13]: 4.16% | residual activity [14]: 100% | inhibition [15]: 95.6% | inhibition [16]: 73.7% | residual activity [17]: 100% | residual activity [18]: 99% | residual activity [19]: 100% | residual activity [20]: 100% | residual activity [21]: 100% | residual activity [22]: 100% | residual activity [23]: 100% | residual activity [24]: 100% | residual activity [25]: 94% | residual activity [26]: 100% | residual activity [27]: 100% | residual activity [28]: 100% | residual activity [29]: 97% | residual activity [30]: 100% | residual activity [31]: 100% | residual activity [32]: 100% | residual activity [33]: 99% | residual activity [34]: 100% | residual activity [35]: 85% | residual activity [36]: 100% | residual activity [37]: 100% | residual activity [38]: 100% | residual activity [39]: 88% | residual activity [40]: 99% | residual activity [41]: 100% | inhibition [42]: 65.6% | residual activity [43]: 81% | residual activity [44]: 100% | residual activity [45]: 100%
